Data as given in US20200325505A1, “FILAMENTOUS FUNGI CAPABLE OF PRODUCING VERY LONG CHAIN FATTY ACIDS” (UT-Battelle, LLC, priority 2019, published 2020).
Residues, ends and D or L forms follow the SMILES beside them.

Columns and labels:
[1] = test system: Mortierella elongata AG77; assay: Nitrogen source utilisation in Biolog 96-well plates, formazan formation after tetrazolium addition; assay type: cell-based; conditions: for Metabolized: Metabolized = more formazan formation than a control containing no nitrogen source, observed visually at 2 h, 24 h, 148 h; for Nitrogen sources that Mortierella elongata AG77 can metabolize: text summary of Table 4
Protocol: Two 300 mL volumes of growth medium comprising 1 g/L KH2PO4, 1 g/L MgSO4 7H2O, 0.1 g/L CaCl2, 0.02 g/L FeNaEDTA, 0.1 g/L NaCl, and either 1 g/L NH4NO3 or 20 g/L sucrose were prepared. […] Aliquots of 200 μL of carbon-free medium or nitrogen-free medium were pipetted into each well of a set of 96-well plates previously prepared with lyophilized putative carbon or nitrogen sources (Biolog Inc., Hayward, Calif.). Inocula were prepared by perforating a culture of Mortierella elongata AG77 grown on 20 g/L potato dextrose agar with a 3 mm diameter cork borer and separating the surface mycelial mat from the solid growth medium using tweezers. Each well was inoculated with one inoculum. Cultures were incubated at 21° C. for 24 hours to allow metabolic changes to stabilize, and then 100 μL of 3 g/L tetrazolium chloride in water was added to each well.
Conclusions were based on rate and intensity of formazan formation using the 3-(4,5-dimethylthiazol-2-yl)-2,5-diphenyltetrazolium bromide ([…]) assay. “Metabolized” indicates more formazan formation than a control containing no nitrogen source, and “Toxic” indicates less formazan formation than a control containing no nitrogen source, “Metabolized” and “Toxic” assignments are mutually exclusive. In this example, a compound may be “Metabolized” or “Toxic,” but not both.

[2] = test system: Mortierella elongata AG77; assay: Carbon source utilisation in Biolog 96-well plates, formazan formation after tetrazolium addition; assay type: cell-based; conditions: for Metabolized: Metabolized = more formazan formation than a control containing no carbon source, observed visually at 2 h, 24 h, 148 h; for Carbon sources that Mortierella elongata AG77 can metabolize: summary of Table 3
Protocol: Two 300 mL volumes of growth medium comprising 1 g/L KH2PO4, 1 g/L MgSO4 7H2O, 0.1 g/L CaCl2, 0.02 g/L FeNaEDTA, 0.1 g/L NaCl, and either 1 g/L NH4NO3 or 20 g/L sucrose were prepared. Acidity was adjusted to 5.5 using NaOH and volumes of growth medium were autoclaved 30 min at 121° C. to sterilize. Aliquots of 200 μL of carbon-free medium or nitrogen-free medium were pipetted into each well of a set of 96-well plates previously prepared with lyophilized putative carbon or nitrogen sources (Biolog Inc., Hayward, Calif.). Inocula were prepared by perforating a culture of Mortierella elongata AG77 grown on 20 g/L potato dextrose agar with a 3 mm diameter cork borer and separating the surface mycelial mat from the solid growth medium using tweezers. Each well was inoculated with one inoculum. Cultures were incubated at 21° C. for 24 hours to allow metabolic changes to stabilize, and then 100 μL of 3 g/L tetrazolium chloride in water was added to each well. Formazan formation was observed visually at 2 h, 24 h, and 148 h.
Conclusions were based on rate and intensity of formazan formation using the 3-4,5-dimethylthiazol-2-yl)-2,5-diphenyltetrazolium bromide (MTT) assay. “Metabolized” indicates more formazan formation than a control containing no carbon source, and “Toxic” indicates less formazan formation than a control containing no carbon source. “Metabolized” and “Toxic” assignments are mutually exclusive. In this example, a compound may be “Metabolized” or “Toxic,” but not both.

[3] = compound as nitrogen source, Toxic = less formazan formation than a control containing no nitrogen source
[4] = compound as carbon source, Toxic = less formazan formation than a control containing no carbon source

CC(O)C(N)=O (racemic) [D,L-Lactamide]
Metabolized ([1]; compound as nitrogen source): no
Toxic [1, 3]: no

CCCCCCC(N)C(=O)O (racemic) [D,L-α-Amino- Caprylic Acid]
Metabolized ([1]; compound as nitrogen source): no
Toxic [1, 3]: no

CCC(N)C(=O)O (racemic) [D,L-α-Amino-N-Butyric Acid]
Toxic [1]: no
Metabolized ([1]; compound as nitrogen source): no

Nc1ncnc2nc[nH]c12 [Adenine]
Toxic [1]: no
Metabolized ([1]; compound as nitrogen source): no

N=C(N)NCCCCN [Agmatine]
Metabolized ([1]; compound as nitrogen source): no
Toxic [1, 3]: no

C[C@H](N)C(=O)N[C@@H](CC(=O)O)C(=O)O [Ala-Asp] (H-Ala-Asp-OH)
Metabolized ([1]; compound as nitrogen source): yes
Toxic [1, 3]: no
Nitrogen sources that Mortierella elongata AG77 can metabolize [1]: can metabolize

C[C@H](N)C(=O)N[C@@H](CCC(N)=O)C(=O)O [Ala-Gln] (H-Ala-Gln-OH)
Metabolized ([1]; compound as nitrogen source): yes
Toxic [1, 3]: no
Nitrogen sources that Mortierella elongata AG77 can metabolize [1]: can metabolize

C[C@H](N)C(=O)N[C@@H](CCC(=O)O)C(=O)O [Ala-Glu] (H-Ala-Glu-OH)
Metabolized ([1]; compound as nitrogen source): yes
Toxic [1, 3]: no
Nitrogen sources that Mortierella elongata AG77 can metabolize [1]: can metabolize

C[C@H](N)C(=O)N[C@@H](Cc1cnc[nH]1)C(=O)O [Ala-His] (H-Ala-His-OH)
Metabolized ([1]; compound as nitrogen source): no
Toxic [1, 3]: no

CC(C)C[C@H](NC(=O)[C@H](C)N)C(=O)O [Ala-Leu] (H-Ala-Leu-OH)
Metabolized ([1]; compound as nitrogen source): yes
Toxic [1, 3]: no
Nitrogen sources that Mortierella elongata AG77 can metabolize [1]: can metabolize

C[C@H](N)C(=O)N[C@H](C(=O)O)[C@@H](C)O [Ala-Thr] (H-Ala-Thr-OH)
Metabolized ([1]; compound as nitrogen source): no
Toxic [1, 3]: no

NC(=O)NC1NC(=O)NC1=O (centres unmarked) [Allantoin]
Toxic [1]: no
Metabolized ([1]; compound as nitrogen source): no

O=C1NC(=O)C(=O)C(=O)N1 [Alloxan]
Metabolized ([1]; compound as nitrogen source): no
Toxic [1, 3]: no

CO[C@H]1O[C@H](CO)[C@@H](O)[C@H](O)[C@H]1O [a-Methyl-D-Glucoside]
Metabolized ([2]; compound as carbon source): yes
Toxic [2, 4]: no
Carbon sources that Mortierella elongata AG77 can metabolize [2]: can metabolize

OC[C@@H](O)[C@@H](O)CO [i-Erythritol]
Metabolized ([2]; compound as carbon source): no
Toxic [2, 4]: no

O=C(O)Cc1cccc(O)c1 [m-Hydroxy Phenyl Acetic Acid]
Metabolized ([2]; compound as carbon source): no
Toxic [2, 4]: no

O[C@H]1[C@H](O)[C@@H](O)[C@H](O)[C@@H](O)[C@H]1O [m-Inositol]
Metabolized ([2]; compound as carbon source): yes
Toxic [2, 4]: no
Carbon sources that Mortierella elongata AG77 can metabolize [2]: can metabolize

O=C(O)C(O)C(O)C(=O)O (centres unmarked) [m-Tartaric Acid]
Metabolized ([2]; compound as carbon source): yes
Carbon sources that Mortierella elongata AG77 can metabolize [2]: can metabolize

O=C(O)Cc1ccc(O)cc1 [p-Hydroxy Phenyl Acetic Acid]
Metabolized ([2]; compound as carbon source): no
Toxic [2, 4]: no

OC[C@H]1O[C@@H]2O[C@H]3[C@H](O)[C@@H](O)[C@@H](O[C@H]4[C@H](O)[C@@H](O)[C@@H](O[C@H]5[C@H](O)[C@@H](O)[C@@H](O[C@H]6[C@H](O)[C@@H](O)[C@@H](O[C@H]7[C@H](O)[C@@H](O)[C@@H](O[C@H]1[C@H](O)[C@H]2O)O[C@@H]7CO)O[C@@H]6CO)O[C@@H]5CO)O[C@@H]4CO)O[C@@H]3CO [α-Cyclodextrin]
Metabolized ([2]; compound as carbon source): no
Toxic [2, 4]: no

OC[C@H]1O[C@H](O)[C@H](O)[C@@H](O)[C@@H]1O [α-D-Glucose]
Toxic [2]: no
Metabolized ([2]; compound as carbon source): no

OC[C@H]1O[C@@H](O[C@H]2[C@H](O)[C@@H](O)[C@@H](O)O[C@@H]2CO)[C@H](O)[C@@H](O)[C@H]1O [α-D-Lactose]
Metabolized ([2]; compound as carbon source): no

CCC(O)C(=O)O (stereo not drawn) [α-Hydroxy Butyric Acid]
Metabolized ([2]; compound as carbon source): no
Toxic [2, 4]: no

O=C1CCC(C(=O)O)O1 (stereo not drawn) [α-Hydroxy Glutaric Acid-γ-Lactone]
Metabolized ([2]; compound as carbon source): no
Toxic [2, 4]: no

CCC(=O)C(=O)O [α-Keto-Butyric Acid]
Metabolized ([2]; compound as carbon source): no
Toxic [2, 4]: no

O=C(O)CCC(=O)C(=O)O [α-Keto-Glutaric Acid]
Toxic [2, 4]: no

CCCC(=O)C(=O)O [α-Keto-Valeric Acid]
Metabolized ([2]; compound as carbon source): no
Toxic [2, 4]: no

COC1OC(CO)C(O)C(O)C1O [α-Methyl-D-Galactoside]
Metabolized ([2]; compound as carbon source): yes
Toxic [2, 4]: no
Carbon sources that Mortierella elongata AG77 can metabolize [2]: can metabolize

COC1OC(CO)C(O)C(O)C1O [α-Methyl-D-Mannoside]
Metabolized ([2]; compound as carbon source): no
Toxic [2, 4]: no

OC[C@H]1O[C@@H]2O[C@H]3[C@H](O)[C@@H](O)[C@@H](O[C@H]4[C@H](O)[C@@H](O)[C@@H](O[C@H]5[C@H](O)[C@@H](O)[C@@H](O[C@H]6[C@H](O)[C@@H](O)[C@@H](O[C@H]7[C@H](O)[C@@H](O)[C@@H](O[C@H]8[C@H](O)[C@@H](O)[C@@H](O[C@H]1[C@H](O)[C@H]2O)O[C@@H]8CO)O[C@@H]7CO)O[C@@H]6CO)O[C@@H]5CO)O[C@@H]4CO)O[C@@H]3CO [β-Cyclodextrin]
Metabolized ([2]; compound as carbon source): no
Toxic [2, 4]: no

OC[C@H]1O[C@@H](O)[C@H](O)[C@H](O)[C@@H]1O [β-D-Allose]
Toxic [2]: no
Metabolized ([2]; compound as carbon source): no

CC(O)CC(=O)O (stereo not drawn) [β-Hydroxy Butyric Acid]
Toxic [2]: no
Metabolized ([2]; compound as carbon source): no

CO[C@@H]1O[C@H](CO)[C@@H](O)[C@H](O)[C@H]1O [β-Methyl-D-Galactoside]
Metabolized ([2]; compound as carbon source): yes
Toxic [2, 4]: no
Carbon sources that Mortierella elongata AG77 can metabolize [2]: can metabolize

CO[C@@H]1O[C@H](CO)[C@@H](O)[C@H](O)[C@H]1O [β-Methyl-D-Glucoside]
Metabolized ([2]; compound as carbon source): no
Toxic [2, 4]: no

CO[C@@H]1O[C@H](C(=O)O)[C@@H](O)[C@H](O)[C@H]1O [β-Methyl-D-Glucuronic Acid]
Metabolized ([2]; compound as carbon source): no
Toxic [2, 4]: no

COC1OCC(O)C(O)C1O [β-Methyl-D-Xyloside]
Metabolized ([2]; compound as carbon source): no
Toxic [2, 4]: no

OC[C@H]1O[C@@H]2O[C@H]3[C@H](O)[C@@H](O)[C@@H](O[C@H]4[C@H](O)[C@@H](O)[C@@H](O[C@H]5[C@H](O)[C@@H](O)[C@@H](O[C@H]6[C@H](O)[C@@H](O)[C@@H](O[C@H]7[C@H](O)[C@@H](O)[C@@H](O[C@H]8[C@H](O)[C@@H](O)[C@@H](O[C@H]9[C@H](O)[C@@H](O)[C@@H](O[C@H]1[C@H](O)[C@H]2O)O[C@@H]9CO)O[C@@H]8CO)O[C@@H]7CO)O[C@@H]6CO)O[C@@H]5CO)O[C@@H]4CO)O[C@@H]3CO [γ-Cyclodextrin]
Metabolized ([2]; compound as carbon source): no
Toxic [2, 4]: no

O=C(O)CCCO [γ-Hydroxy Butyric Acid]
Metabolized ([2]; compound as carbon source): no
Toxic [2, 4]: no

Chondroitin Sulfate C
Toxic [2]: no

Dextrin
Toxic [2]: no

Gelatin
Toxic [2]: no

Gentiobiose
Metabolized ([2]; compound as carbon source): no

Glycogen
Toxic [2]: no

Laminarin
Toxic [2]: no

Maltotriose
Metabolized ([2]; compound as carbon source): yes
Toxic [2, 4]: no
Carbon sources that Mortierella elongata AG77 can metabolize [2]: can metabolize

Mannan
Toxic [2]: no

Pectin
Toxic [2]: no

Tween 20
Metabolized ([2]; compound as carbon source): yes
Toxic [2, 4]: no
Carbon sources that Mortierella elongata AG77 can metabolize [2]: can metabolize

Tween 40
Metabolized ([2]; compound as carbon source): no
Toxic [2, 4]: no

Tween 80
Metabolized ([2]; compound as carbon source): yes
Toxic [2, 4]: no
Carbon sources that Mortierella elongata AG77 can metabolize [2]: can metabolize
